Ends that are not written are not given here.
How the values were obtained:
[1] = test system: SK-Br-3 (HER2/neu-positive) cells; experiment: Flow cytometry staining of HER2/neu-positive SK-Br-3 cells; type: cell-based
Method: FIG. 4 is a series of scatter plots from flow cytometry studies using SK-Br-3 (HER2/neu-positive) cells stained with a SEQ ID NO:3-QD-trastuzumab complex. The SK-Br-3 cells were incubated with isotype control antibody (top left), PE-anti-HER2 (top middle), SEQ ID NO:3-QD only (top right), and SEQ ID NO:3-QD-trastuzumab complex (bottom left). The cells were 84.7% positive for HER2/neu, 15.9% positive with SEQ ID NO:3-QD only and 68.9% positive with SEQ ID NO:3-QD-trastuzumab complex. A histogram representation of the data is included at the bottom right of the figure.
Additional experiments utilized HER2/neu-positive SK-Br-3 cells stained with polypeptide-QD bound to trastuzumab. The SK-Br-3 cells were incubated with isotype (FIG. 4, top left), PE-anti-HER2 (FIG. 4, top middle), polypeptide-QD only (FIG. 4, top right), and polypeptide-QD-trastuzumab complex (FIG. 4, bottom left). The cells were 84.7% positive for HER2/neu, 15.9% positive with polypeptide-QD only and 68.9% positive with the polypeptide-QD-trastuzumab complex. A histogram representation of the data is shown at the bottom right of […].

[2] = test system: CD20+ Daudi lymphoma cells; experiment: Flow cytometry staining of CD20+ Daudi lymphoma cells; type: cell-based; conditions: CD20+ Daudi lymphoma cells incubated 30 minutes at 4° C., washed with FACS buffer
Method: FIG. 1 is a series of scatter plots from flow cytometry studies using a polypeptide having the sequence […] (SEQ ID NO:3) that was labeled with QDs that emit at a wavelength of 565 nm, and complexed with a therapeutic antibody (rituximab). […] CD20+ Daudi lymphoma cells were incubated with isotype control, FITC-rituximab, peptide-QD only, peptide-QD+rituximab (10:1), and peptide-QD+rituximab (25:1) for 30 minutes at 4° C. After washing with FAGS buffer (PBS+0.5% BSA and 0.5% Na azide), the stained cells were analyzed by flow cytometry for recognition of CD20. The Daudi cells were 95% CD20+ (top left), 11.62% positive when stained with peptide-QD only (bottom left), and 57.02% and 61.31% positive with peptide-QD-rituximab at 10:1 and 25:1 (bottom center and bottom right, respectively).
The fluorescently labeled peptide was then bound to rituximab, trastuzumab, or atezolizumab and tested for binding to tumor cells expressing the pertinent tumor target. […] CD20+ Daudi lymphoma cells were incubated with isotype control, FITC-rituximab, polypeptide-QD only, polypeptide-QD-rituximab (10:1) complex, and polypeptide-QD-rituximab (25:1) complex for 30 minutes at 4° C. After washing with FACS buffer (PBS+0.5% BSA and 0.5% Na azide), the stained cells were analyzed by flow cytometry. […]

| Substance | SK-Br-3 cells positive by flow cytometry [1] [%] | Daudi cells positive by flow cytometry [2] [%] |
| --- | --- | --- |
| polypeptide-QD only: SEQ ID NO:3 polypeptide thiol-linked via SMCC crosslinker to PEG-coated Quantum Dots, without antibody (CGSGGGSVVLNQLCVLHEKTPVSDR; not fully specified (residue 1); also: Cys1 thiol linked via SMCC to PEG-coated quantum dot) | 15.9 | 11.62 |
| FITC-rituximab: FITC-labeled rituximab used as direct CD20 stain of Daudi cells [reference compound] | – | 95 |

Reference: patent US11971412B2, “Polypeptide-antibody complexes and uses thereof” (Mayo Foundation for Medical Education and Research, priority 2017, dated 2024)
